{"source": "paper PMC4893628", "about": "“Chalcone-based Selective Inhibitors of a C4 Plant Key Enzyme as Novel Potential Herbicides” (Scientific Reports, 2016)", "key": {"A. retroflexus [1]": {"tested_on": "A. retroflexus", "experiment": "Chlorophyll fluorescence measurements, A. retroflexus leaf discs", "format": "in vivo, Amaranthus retroflexus", "settings": "2 mM", "method": "from a fixed distance at 90° view angle using the camera Canon EOS 70D equipped with a Canon EF 14 mm/2.8 L II USM lens. Leaf area of single leaves was measured using the ImageJ software31, by drawing the leaf contours using a drawing tablet (Cintiq 22HD, Wacom Europe GmbH, Krefeld, Germany). Conversion of pixel to cm was achieved by using a target of known size inside the image. Six days after the treatment, half of the plants were harvested. Leaf area was assessed using a leaf area meter (LI3100C Area Meter, LI-Cor, Lincoln, Nebraska, USA) and samples were oven-dried at 65°C for seven days to obtain dry weight . Thirteen days after the treatment, this procedure was repeated with the second half of plants.\nChlorophyll fluorescence measurements\nFor assessment of photosynthetic parameters, A. retroflexus plants were grown under the abovementioned conditions until the two-leaves growth stage. 6 mm leaf discs were cut out of the second leaf and immediately placed into 96-well-plates filled with 300 µL 0.125 % Hoagland’s solution with 1 mM MES-KOH (MES-monohydrate, Merck, Darmstadt, Germany) buffered to a pH of 6.5. The treatment solution contained 1.6 % (v/v) DMSO, 0.1 % (v/v) Tween® 20 and 2',3',4',3,4-Pentahydroxychalcone at a concentration of 2 mM. The control treatment contained 1.6 % (v/v) DMSO, 0.1 % (v/v) Tween® 20. Each leaf disc was treated with 1.5 µL solution placed on top of the leaf discs. Plates were sealed with Parafilm and placed into a climate cabinet with 12h/12h day/night-length and a temperature of 22°C at a light intensity of 130 µmol m-2 s-1. 96 hours after treatment, chlorophyll fluorescence measurements were performed on leaf discs using an Imaging PAM M-Series fluorescence camera (Heinz Walz GmbH, Effeltrich, Germany). Leaf discs were dark adapted for 30 minutes, minimum and maximum chlorophyll fluorescence were obtained and leaf discs were illuminated for 30 minutes"}, "B. napus [2]": {"tested_on": "B. napus", "experiment": "Leaf gas exchange measurements, B. napus", "format": "in vivo, Brassica napus", "method": "(§1) CO2-response curves were obtained on A. retroflexus and B. napus using a LI-6400XT portable photosynthesis system equipped with a fluorescence head and a leaf chamber size of 2 cm^2 (LI-COR, Lincoln, NE, USA) at a photon flux density of 1500 μmol m^−2 s^−1 and at 25 °C leaf temperature. Plants were grown at the research greenhouse of the IBG-2 Institute of Plant Sciences at Forschungszentrum Jülich, Germany (50°55′20″N 06°21′30″E), at a day/night length of 16 h/8 h, at an average day/night temperature of 23 °C/17 °C, relative humidity of 55%, and light intensity of 170 PAR. Plants were treated as described above at the three-leaf stage. Measurements were performed on the third leaf before treatment and one day after treatment. Each treatment was repeated four times. Information on statistical analysis is given in the Supplementary Information."}, "B. napus [3]": {"tested_on": "B. napus", "experiment": "Chlorophyll fluorescence measurements, B. napus", "format": "in vivo, Brassica napus", "settings": "2 mM"}, "A. retroflexus [4]": {"tested_on": "A. retroflexus", "experiment": "Leaf gas exchange measurements, A. retroflexus", "format": "in vivo, Amaranthus retroflexus", "method": "as §1"}, "[5]": {"settings": "estimate valid for both measurement days (before and one day after treatment)"}}}
{"compound": "O=C(/C=C/c1ccc(O)c(O)c1)c1ccc(O)c(O)c1O", "note": "[Compound 12, 2′,3′,4′,3,4-Pentahydroxy-chalcone]", "values": [{"measurement": "effective quantum yield of photosystem II", "setting": "A. retroflexus [1]", "value": "increased"}, {"measurement": "maximum electron transfer rate", "setting": "A. retroflexus [1]", "value": "increased"}, {"measurement": "non-photochemical quenching", "setting": "A. retroflexus [1]", "value": "reduced"}, {"measurement": "photosynthetic parameters", "setting": "B. napus [2]; after treatment", "value": "no changes"}, {"measurement": "maximal electron transport rate (Jmax)", "setting": "B. napus [2]; [5]", "value": "144.2 (3.77)"}, {"measurement": "maximal rubisco carboxylation rate (Vcmax)", "setting": "B. napus [2]; [5]", "value": "81.5 (3.33)"}, {"measurement": "mitochondrial respiration (Rd)", "setting": "B. napus [2]; [5]", "value": "0.9 (0.66)"}, {"measurement": "photosynthetic parameters", "setting": "B. napus [3]", "value": "no effect"}, {"measurement": "Maximal PEP carboxylation rate (Vpmax)", "setting": "A. retroflexus [4]; Before treatment", "value": 36.5, "unit": "μmol m^−2 s^−1"}, {"measurement": "Maximal PEP carboxylation rate (Vpmax)", "setting": "A. retroflexus [4]; Before treatment, listed as Okanin", "value": "36.5 (3.96) μmol m^−2 s^−1"}, {"measurement": "Maximal PEP carboxylation rate (Vpmax)", "setting": "A. retroflexus [4]; One day after treatment", "value": 17.2, "unit": "μmol m^−2 s^−1"}, {"measurement": "Maximal PEP carboxylation rate (Vpmax)", "setting": "A. retroflexus [4]; One day after treatment, listed as Okanin", "value": "17.2 (2.43) μmol m^−2 s^−1"}, {"measurement": "decrease of Vpmax", "setting": "A. retroflexus [4]; one day after treatment", "value": "more than 50%"}]}
